Experimental data from article PMC7038234, “Screening of Natural Extracts for Inhibitors against Japanese Encephalitis Virus Infection” (Antimicrobial Agents and Chemotherapy, 2020).
Read-outs that look alike come from different tables or passages of the source.

Assays:
[1] = test system: JEV; conditions: cited from earlier work
[2] = Cytotoxicity / cell viability on Vero cells; conditions: African green monkey
[3] = test system: JEV strains AT31 and SA14; test: Plaque assay of virus production in culture supernatants (Vero, Huh-7, U251 cells); format: cell-based, Japanese encephalitis virus
[4] = test system: JEV SA14 replicon; test: JEV reporter replicon assay (Renilla luciferase) in Huh-7 cells; conditions: for JEV RNA synthesis (replicon luciferase signal): 24 h postelectroporation
[5] = test system: JEV strain SA14; test: Immunofluorescence staining assay (IFA), SA14 infection of Vero cells
[6] = test system: JEV; format: cell-based, Japanese encephalitis virus
[7] = test system: JEV AT31; test: Addition of sodium and potassium assay (plaque assay); conditions: Vero cells, AT31, NaCl 0-100 mM, KCl 0-25 mM
[8] = test system: JEV strain SA14; test: qRT-PCR of JEV RNA levels in Vero cell lysates; format: cell-based, Japanese encephalitis virus; conditions: Vero cells, high-, middle- and low-dose-treated groups
[9] = test system: JEV (AT31); test: Antiviral efficacy in JEV-infected BALB/c mice; format: in vivo, BALB/c mouse
Method: Adult male BALB/c mice (4 weeks) were randomly divided into three groups: the JEV-infected and vehicle (0.75% DMSO in normal saline)-treated group, the JEV-infected and ouabain-treated group, and the ouabain-treated group. For infection, mice were infected intraperitoneally (i.p.) with a dose of 1 × 10^6 PFU JEV (AT31). The infected mice were i.p. administered with ouabain at 3 mg/kg of body weight or a vehicle control every day for 21 consecutive days. Mice were sacrificed at day 1, 3, 7, 10, or 21, depending on the experimental design. Blood, spleen, and brain samples were collected for plaque assay, qRT-PCR, and histopathology investigation (Vectra ss; PerkinElmer).
The viral burden was determined by plaque assay. The samples were weighed and homogenized in 300 μl of PBS. The homogenates were clarified by centrifugation (2,000 × g at 4°C) for 15 min and then diluted serially prior to infection of BHK-21 cells. The viral titer was adjusted for sample volume and tissue weight to calculate the titer as PFU/g.
Tissue samples and blood from JEV-infected mice were extracted with the RNAprep pure tissue kit (Tiangen; catalog no. DP431) and RNAprep pure blood kit (Tiangen; catalog no. DP433), respectively. JEV RNA levels were determined by one-step qRT-PCR on ABI Real-Time PCR systems using standard cycling conditions. The viral burden was calculated on a standard curve produced using serial 10-fold dilutions of plasmids carrying the infectious clone.
For histopathology investigation, brain tissues were collected from the mice and fixed in 4% paraformaldehyde; the hematoxylin-eosin staining protocol was followed for tissue staining.

[10] = JEV-infected BALB/c mice, ouabain 3 mg/kg i.p. daily, 21 days

## CCCCCCN(CCCCCC)C(=O)Cc1c(-c2ccc(F)cc2)[nH]c2ccccc12 [FGIN-1-27]
[1]
  JEV infection: reduced the JEV infection in vitro

## COC1=CC23CCCN2CCc2cc4c(cc2C3C1O)OCO4 (centres unmarked) [cephalotaxlen]
[2]
  CC50: > 100 µM

## C[C@H]1O[C@@H](O[C@H]2[C@@H](O)C[C@H](O[C@H]3[C@@H](O)C[C@H](O[C@H]4CC[C@@]5(C)[C@H](CC[C@@H]6[C@@H]5C[C@@H](O)[C@]5(C)[C@@H](C7=CC(=O)OC7)CC[C@]65O)C4)O[C@@H]3C)O[C@@H]2C)C[C@H](O)[C@@H]1O [digoxin]
[3]; Vero cells, plaque assay, highest concentration
  reduction of AT31 and SA14 virus production: 4 to 6 log units
[4]
  initial translation of replicon RNA: neither drug inhibited
  JEV RNA synthesis (replicon luciferase signal): inhibited JEV RNA synthesis in a dose-dependent manner
[5]; digoxin 392 nM
  SA14 reproduction: greatly inhibited
[6]
  adaptive (drug-resistant) mutant: no adaptive mutant was found
[2]
  CC50: > 100 µM
[7]
  dependence of JEV-inhibiting effect on extracellular NaCl and KCl: positively correlated with extracellular NaCl but inversely correlated with KCl
[8]
  attenuated RNA levels of the SA14 strain: above 40%

## Cc1cc(O)c2c(c1)C(=O)c1cc(O)cc(O)c1C2=O [emodin]
[2]
  CC50: > 100 µM

## O[C@H]1[C@H]2c3cc4c(cc3CN3CCC(=C[C@@H]1O)[C@H]23)OCO4 [lycorine]
[2]
  CC50: > 100 µM

## COC(=O)C1=C(C)NC(C)=C(C(=O)OCCN2CCN(C(c3ccccc3)c3ccccc3)CC2)C1c1cccc([N+](=O)[O-])c1 (centres unmarked) [manidipine]
[1]
  JEV infection: inhibited JEV infection in vitro and in vivo

## C[C@@H]1O[C@@H](O[C@H]2C[C@@H](O)[C@]3(CO)[C@H]4[C@H](O)C[C@]5(C)[C@@H](C6=CC(=O)OC6)CC[C@]5(O)[C@@H]4CC[C@]3(O)C2)[C@H](O)[C@H](O)[C@H]1O [ouabain]
[3]
  reduction of AT31 and SA14 virus production: 4 to 6 log units
[4]
  initial translation of replicon RNA: neither drug inhibited
  JEV RNA synthesis (replicon luciferase signal): inhibited JEV RNA synthesis in a dose-dependent manner
[9]; [10]
  animals survived: 8 out of 14
  survival rate: ~60%
[9]; day 7 postinfection, meningitis, perivascular cuffing, vacuolar degeneration
  histopathological changes in brain: remarkably alleviated
[9]; day 21 postinfection, plaque assay
  plaques from brain on day 21 postinfection: no plaques formed
[9]; days 7, 10 and 21 postinfection, versus untreated infected mice
  viral load in brain (plaque assay): significantly reduced viral load
[9]; qRT-PCR, days 1 and 3 postinfection
  effect on viral titers in the brain at the preclinical stage: little effect
[9]; qRT-PCR, earlier time points (days 1 and 3)
  effect on decreasing viral titers in the blood and spleen: little effect
[9]; uninfected BALB/c mice, ouabain 3 mg/kg i.p. daily
  behavior of mice treated with ouabain alone: little abnormal behavior
[5]; ouabain 98 nM
  SA14 reproduction: greatly inhibited
[6]
  adaptive (drug-resistant) mutant: no adaptive mutant was found
[2]
  CC50: > 100 µM
[7]
  dependence of JEV-inhibiting effect on extracellular NaCl and KCl: positively correlated with extracellular NaCl but inversely correlated with KCl
[8]
  attenuated RNA levels of the SA14 strain: above 40%

## Oc1cc(O)c2c(c1)OC(c1ccc(O)c(O)c1)C(OC1(c3ccc(O)c(O)c3)Oc3cc(O)cc(O)c3C(O)C1O)C2 (centres unmarked) [procyanidin]
[2]
  CC50: > 100 µM

## COc1cc2c(c(OC)c1OC)-c1c(cc(OC)c(OC)c1OC)C[C@H](C)[C@H](C)C2 [schizandrin A]
[2]
  CC50: 100 µM

## COc1cc2c(c(OC)c1OC)-c1c(cc3c(c1OC)OCO3)CC(C)C(C)C2 (centres unmarked) [schizandrin B]
[2]
  CC50: > 100 µM
